{
  "source": "patent US5298508A",
  "about": "“Irreversible inhibitors of adenosine receptors” (priority 1992, dated 1994)",
  "key": {"[1]": {"test_system": "A1-adenosine receptors", "assay": "covalent labeling of solubilized central A1 receptor preparation, SDS electrophoresis", "type": "binding", "details": "tritiated 4b, SDS gel, with or without high concentration of R-PIA", "description": "An SDS electrophoresis gel separated proteins from a solubilized central A1 receptor preparation, pretreated with compound 4b (lane 1)."}, "[2]": {"target": "T1, central A1 receptors (Bos taurus, UniProt P28190)", "T1 construct": "A1 -adenosine receptors in membranes form calf brain; from tissue; host or cells: calf brain membranes", "T1 sequence (P28190 1-326)": "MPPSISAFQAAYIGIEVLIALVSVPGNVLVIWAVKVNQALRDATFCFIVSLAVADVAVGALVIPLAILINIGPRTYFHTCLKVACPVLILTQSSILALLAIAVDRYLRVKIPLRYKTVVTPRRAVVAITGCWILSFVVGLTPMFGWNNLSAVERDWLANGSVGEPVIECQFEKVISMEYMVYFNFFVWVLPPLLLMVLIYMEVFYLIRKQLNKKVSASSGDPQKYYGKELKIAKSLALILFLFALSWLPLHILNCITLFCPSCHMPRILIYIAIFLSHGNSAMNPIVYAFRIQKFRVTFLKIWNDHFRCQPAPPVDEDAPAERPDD", "assay": "inhibition of radioligand binding at central A1 receptors, calf brain membranes", "text": "^b against [^125 I]APNEA (i.e. N^6\n^b against [^125 I]APNEA;\nThe compounds, at concentrations relative to the Ki -values obtained, were screened for the ability to inhibit competitive binding of the radioligands [^3 H]PIA to rat brain membranes and [^3 H]XAC to bovine brain membranes, a shown in Table 1."}, "[3]": {"assay": "chemical reactivity towards primary amines (thin layer chromatography)", "type": "physicochemical", "details": "ethylene diamine in molar excess, TLC"}, "[4]": {"target": "T2, central A1 receptors (Rattus norvegicus, UniProt P25099)", "T2 construct": "A1 -adenosine receptors in rat brain membranes; from tissue; host or cells: rat brain membranes", "T2 sequence (P25099 1-326)": "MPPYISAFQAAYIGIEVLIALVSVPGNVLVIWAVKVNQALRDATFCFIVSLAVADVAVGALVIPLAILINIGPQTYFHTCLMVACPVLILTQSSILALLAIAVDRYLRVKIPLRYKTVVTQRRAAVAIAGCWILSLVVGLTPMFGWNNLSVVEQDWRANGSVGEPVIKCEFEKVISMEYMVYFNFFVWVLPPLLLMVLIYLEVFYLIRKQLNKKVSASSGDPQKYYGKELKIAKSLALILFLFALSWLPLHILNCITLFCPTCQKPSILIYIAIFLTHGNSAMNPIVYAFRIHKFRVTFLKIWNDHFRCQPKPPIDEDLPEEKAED", "type": "binding"}, "[5]": {"target": "T3, rat brain membranes (Rattus norvegicus, UniProt P25099)", "T3 construct": "A1 -adenosine receptors in rat brain membranes; from tissue; host or cells: rat brain membranes", "T3 sequence (P25099 1-326)": "T2 sequence (P25099 1-326)", "assay": "inhibition of [3H]XAC binding to rat brain membranes (blocking experiments)"}, "[6]": {"target": "T4, A1 adenosine receptors (Rattus norvegicus, UniProt P25099)", "T4 construct": "A1 adenosine receptors in rat cerebral cortex membranes; from tissue; host or cells: rat cerebral cortex membranes", "T4 sequence (P25099 1-326)": "T2 sequence (P25099 1-326)", "assay": "inhibition of binding of [3H]N6-phenylisopropyladenosine ([3H]PIA) to A1 adenosine receptors in rat cerebral cortex membranes", "experimental": "Ukena et al., FEBS Letters 209;122, 1986.\nFor the biochemical assays, stock solutions of xanthines in the millimolar concentration range in dimethylsulfoxide were prepared and stored frozen. The solutions were warmed to 50° C. prior to dilution in aqueous medium. […] Acad. Sci. USA, 83:4089, 1986. Inhibition of binding by a range of concentrations of a xanthine or adenosine derivative was assessed in triplicate in at least three separate experiments."}, "[7]": {"assay": "stability to storage", "type": "physicochemical", "details": "result in words", "experimental": "A modification of the procedure of Newman et al., J. Med. Chem. 30: 1901, 1987, was used. In this procedure, 1,3-phenylenediamine, 0.211 grams, 1.95 mmol, was dissolved in 80 ml chloroform. Thirty ml water and 0.38 gram, 4.5 mmol, sodium bicarbonate was added, and the mixture was stirred vigorously. After ten minutes, 0.4 ml, 5.2 mmol of freshly distilled thiophosgene was added. After one hour, the phases were separated, and the organic layer was dried over sodium sulfate and evaporated. The residue was triturated with ether:petroleum ether, 1:1, and filtered. The filtrate was evaporated, leaving the product as a white solid (0.30 g, 81% yield), melting at 50.5°-51° C."}, "[8]": {"test_system": "A1-adenosine receptors", "assay": "irreversible inhibition of [3H]XAC binding sites after one hour incubation and washout, bovine brain membranes", "design": "species or system bovine (calf)"}},
  "note": "Read-outs that look alike come from different tables or passages of the source.",
  "data": [
    {"smiles": "CCCn1c(=O)c2nc(-c3ccc(OCC(=O)NCCN=C(S)Nc4ccc(N=C=S)cc4)cc3)[nH]c2n(CCC)c1=O", "note": "[Compound 4b]", "values": [
      {"measurement": "covalent labeling of A1-adenosine receptor", "setting": "[1]", "result": "Specific labeling of the receptor (MW approximately 40,000)"},
      {"measurement": "Ki", "setting": "[2]", "result": 1, "unit": "nM"},
      {"measurement": "reactivity towards primary amines", "setting": "[3]", "result": "quantitatively reactive towards primary amines"},
      {"measurement": "remaining activity at 0.1 µM", "setting": "[4]; 1 h, read-out: remaining receptor binding sites after treatment (of initial density)", "result": 34, "unit": "%"},
      {"measurement": "irreversible inhibition of A1-adenosine receptors, rat brain membranes", "setting": "[4]; rat brain, result in words", "result": "irreversibly inhibits A1 -adenosine receptors in membranes form calf brain and from rat brain in a dose-dependent manner"},
      {"measurement": "inhibition at 0.1 µM", "setting": "[4]; read-out: % inhib (conc)", "result": 63, "unit": "%"},
      {"measurement": "irreversible inhibition of central A1-adenosine receptors", "setting": "[4]; result in words", "result": "behave pharmacologically as irreversible inhibitors of central A1 -adenosine receptors"},
      {"measurement": "Ki", "setting": "[5]", "result": 22, "unit": "nM"},
      {"measurement": "Ki", "setting": "[6]; Table I, rat, against [3H]PIA, read-out: Ki at central A1 receptors, rat", "result": "6.6 ± 1.31", "unit": "nM"},
      {"measurement": "stability to storage", "setting": "[7]", "result": "stable to storage at -20 °C"},
      {"measurement": "adenosine receptor binding sites irreversibly inhibited", "setting": "[8]; 500 nM, one hour incubation, bovine brain membranes, [3H]XAC binding", "result": 90, "unit": "%"},
      {"measurement": "irreversible inhibition of A1-adenosine receptors, calf brain membranes", "setting": "[8]; calf/bovine brain, result in words", "result": "irreversibly inhibits A1 -adenosine receptors in membranes form calf brain and from rat brain in a dose-dependent manner"}
    ]},
    {"smiles": "S=C=Nc1cccc(N=C=S)c1", "note": "[Compound 5a, 1,3-phenyldiisothiocyanate]", "values": [
      {"measurement": "stability to storage", "setting": "[7]", "result": "stable to storage at room temperature for at least several weeks"}
    ]},
    {"smiles": "O=C(Cc1ccc(NC(=O)Cc2ccc(Nc3ncnc4c3ncn4[C@@H]3O[C@H](CO)[C@@H](O)[C@H]3O)cc2)cc1)NCCNC(=S)Nc1cccc(N=C=S)c1", "note": "[Compound 28]", "values": [
      {"measurement": "Ki", "setting": "[2]", "result": 0.1, "unit": "nM"},
      {"measurement": "inhibition at 0.05 µM", "setting": "[4]; read-out: % inhib (conc)", "result": "> 80", "unit": "%"},
      {"measurement": "irreversible inhibition of central A1-adenosine receptors", "setting": "[4]; result in words", "result": "behave pharmacologically as irreversible inhibitors of central A1 -adenosine receptors"},
      {"measurement": "Ki", "setting": "[6]", "result": 0.86, "unit": "nM"}
    ]},
    {"smiles": "C[C@H](Cc1ccccc1)Nc1ncnc2c1ncn2[C@@H]1O[C@H](CO)[C@@H](O)[C@H]1O", "note": "[R-PIA, reference compound]", "values": [
      {"measurement": "covalent labeling of A1-adenosine receptor", "setting": "[1]", "result": "blocks the irreversible ligand"}
    ]},
    {"smiles": "CCCn1c(=O)c2[nH]c(-c3ccc(OCC(=O)NCCNC(=S)Nc4ccc(NC(=S)NCCN)cc4)cc3)nc2n(CCC)c1=O", "note": "[ethylene diamine adduct]", "values": [
      {"measurement": "Ki", "setting": "[5]; rat brain membranes, [3H]XAC", "result": 18, "unit": "nM"}
    ]}
  ]
}
